# According to PubChem BioAssay (NCI):
#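 Five compound concentrations were applied to cells in 96-well plates for 48 hours; endpoints were derived by simple linear interpolation of the resulting dose-response curve. GI50 is the concentration that inhibits growth by half. TGI: total growth inhibition.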
# Key:
# Assay in all cases: NCI tumour cell line growth inhibition, 48 h
# OVCAR-8 ovarian = system: OVCAR-8 ovarian
# A549 NSCLC = system: A549 NSCLC
# OVCAR-5 ovarian = system: OVCAR-5 ovarian
# UACC-257 melanoma = system: UACC-257 melanoma
# K-562 leukemia = system: K-562 leukemia
# SK-MEL-5 melanoma = system: SK-MEL-5 melanoma
# KM12 colon = system: KM12 colon
# HOP-62 NSCLC = system: HOP-62 NSCLC
# HL-60(TB) leukemia = system: HL-60(TB) leukemia
# COLO 205 colon = system: COLO 205 colon
# HCC-2998 colon = system: HCC-2998 colon
# 786-0 renal = system: 786-0 renal
# MOLT-4 leukemia = system: MOLT-4 leukemia
# SK-MEL-2 melanoma = system: SK-MEL-2 melanoma
# SF-295 CNS = system: SF-295 CNS
# SF-539 CNS = system: SF-539 CNS
# SW-620 colon = system: SW-620 colon
# UACC-62 melanoma = system: UACC-62 melanoma
# CAKI-1 renal = system: CAKI-1 renal
# TK-10 renal = system: TK-10 renal
# HOP-92 NSCLC = system: HOP-92 NSCLC
# A498 renal = system: A498 renal
# DMS 273 small cell lung = system: DMS 273 small cell lung
# SNB-19 CNS = system: SNB-19 CNS
# DMS 114 small cell lung = system: DMS 114 small cell lung
# SN12C renal = system: SN12C renal
# SR leukemia = system: SR leukemia
# U251 CNS = system: U251 CNS
# MALME-3M melanoma = system: MALME-3M melanoma
# SK-OV-3 ovarian = system: SK-OV-3 ovarian
# HT29 colon = system: HT29 colon
# LXFL 529 NSCLC = system: LXFL 529 NSCLC
# RXF 393 renal = system: RXF 393 renal
# OVCAR-3 ovarian = system: OVCAR-3 ovarian
# KM20L2 colon = system: KM20L2 colon
# HOP-18 NSCLC = system: HOP-18 NSCLC
# NCI-H23 lung = system: NCI-H23 lung
# HCT-116 colon = system: HCT-116 colon
# CCRF-CEM leukemia = system: CCRF-CEM leukemia
# LOX IMVI melanoma = system: LOX IMVI melanoma
# EKVX NSCLC = system: EKVX NSCLC
# DLD-1 colon = system: DLD-1 colon
# SF-268 CNS = system: SF-268 CNS
# M14 melanoma = system: M14 melanoma
# RXF-631 renal = system: RXF-631 renal
# RPMI-8226 leukemia = system: RPMI-8226 leukemia
# NCI-H460 lung = system: NCI-H460 lung
# M19-MEL melanoma = system: M19-MEL melanoma
# ACHN renal = system: ACHN renal
# SNB-75 CNS = system: SNB-75 CNS
# SK-MEL-28 melanoma = system: SK-MEL-28 melanoma
# IGROV1 ovarian = system: IGROV1 ovarian
# OVCAR-4 ovarian = system: OVCAR-4 ovarian
# NCI-H226 lung = system: NCI-H226 lung
# NCI-H522 lung = system: NCI-H522 lung
# UO-31 renal = system: UO-31 renal
# SNB-78 CNS = system: SNB-78 CNS
# HCT-15 colon = system: HCT-15 colon
# XF 498 CNS = system: XF 498 CNS
compound,measurement,setting,value
[pH]1p2[pH]p3p1p3[pH]2.c1cc[c]([Ge]([c]2ccccc2)[c]2ccccc2)cc1.c1cc[c]([Ge]([c]2ccccc2)[c]2ccccc2)cc1.c1cc[c]([Ge]([c]2ccccc2)[c]2ccccc2)cc1,GI50,OVCAR-8 ovarian,13.5 µM
same,TGI,OVCAR-8 ovarian,35.3 µM
same,GI50,A549 NSCLC,25.4 µM
same,TGI,A549 NSCLC,> 100 µM
same,GI50,OVCAR-5 ovarian,18.2 µM
same,TGI,OVCAR-5 ovarian,34.1 µM
same,GI50,UACC-257 melanoma,15.2 µM
same,TGI,UACC-257 melanoma,31.7 µM
same,GI50,K-562 leukemia,16.4 µM
same,TGI,K-562 leukemia,43.5 µM
same,GI50,SK-MEL-5 melanoma,34.1 µM
same,TGI,SK-MEL-5 melanoma,53.1 µM
same,GI50,KM12 colon,15.1 µM
same,TGI,KM12 colon,33.7 µM
same,GI50,HOP-62 NSCLC,28.7 µM
same,TGI,HOP-62 NSCLC,66.1 µM
same,GI50,HL-60(TB) leukemia,15.5 µM
same,TGI,HL-60(TB) leukemia,57.3 µM
same,GI50,COLO 205 colon,12.1 µM
same,TGI,COLO 205 colon,26.2 µM
same,GI50,HCC-2998 colon,17 µM
same,TGI,HCC-2998 colon,31 µM
same,GI50,786-0 renal,17.1 µM
same,TGI,786-0 renal,32.3 µM
same,GI50,MOLT-4 leukemia,16.3 µM
same,TGI,MOLT-4 leukemia,> 100 µM
same,GI50,SK-MEL-2 melanoma,19.4 µM
same,TGI,SK-MEL-2 melanoma,34.9 µM
same,GI50,SF-295 CNS,21.2 µM
same,TGI,SF-295 CNS,42.9 µM
same,GI50,SF-539 CNS,13.9 µM
same,TGI,SF-539 CNS,31.8 µM
same,GI50,SW-620 colon,16.3 µM
same,TGI,SW-620 colon,29.9 µM
same,GI50,UACC-62 melanoma,14.3 µM
same,TGI,UACC-62 melanoma,31 µM
same,GI50,CAKI-1 renal,20.6 µM
same,TGI,CAKI-1 renal,44.8 µM
same,GI50,TK-10 renal,18.5 µM
same,TGI,TK-10 renal,33.5 µM
same,GI50,HOP-92 NSCLC,12.8 µM
same,TGI,HOP-92 NSCLC,29.8 µM
same,GI50,A498 renal,15.8 µM
same,TGI,A498 renal,30 µM
same,GI50,DMS 273 small cell lung,15.3 µM
same,TGI,DMS 273 small cell lung,32.5 µM
same,GI50,SNB-19 CNS,14.1 µM
same,TGI,SNB-19 CNS,27.2 µM
same,GI50,DMS 114 small cell lung,12.9 µM
same,TGI,DMS 114 small cell lung,28.4 µM
same,GI50,SN12C renal,15.1 µM
same,TGI,SN12C renal,29.7 µM
same,GI50,SR leukemia,12.8 µM
same,TGI,SR leukemia,80.2 µM
same,GI50,U251 CNS,7.54 µM
same,TGI,U251 CNS,19.7 µM
same,GI50,MALME-3M melanoma,14.3 µM
same,TGI,MALME-3M melanoma,28.1 µM
same,GI50,SK-OV-3 ovarian,15.4 µM
same,TGI,SK-OV-3 ovarian,33.8 µM
same,GI50,HT29 colon,17.6 µM
same,TGI,HT29 colon,34 µM
same,GI50,LXFL 529 NSCLC,11.6 µM
same,TGI,LXFL 529 NSCLC,24.3 µM
same,GI50,RXF 393 renal,64.9 µM
same,TGI,RXF 393 renal,> 100 µM
same,GI50,OVCAR-3 ovarian,10.9 µM
same,TGI,OVCAR-3 ovarian,23.4 µM
same,GI50,KM20L2 colon,19.4 µM
same,TGI,KM20L2 colon,34 µM
same,GI50,HOP-18 NSCLC,14.3 µM
same,TGI,HOP-18 NSCLC,29 µM
same,GI50,NCI-H23 lung,15.3 µM
same,TGI,NCI-H23 lung,31.2 µM
same,GI50,HCT-116 colon,22.2 µM
same,TGI,HCT-116 colon,62.3 µM
same,GI50,CCRF-CEM leukemia,28 µM
same,TGI,CCRF-CEM leukemia,> 100 µM
same,GI50,LOX IMVI melanoma,14.4 µM
same,TGI,LOX IMVI melanoma,30.4 µM
same,GI50,EKVX NSCLC,21.3 µM
same,TGI,EKVX NSCLC,46.3 µM
same,GI50,DLD-1 colon,14.8 µM
same,TGI,DLD-1 colon,29.5 µM
same,GI50,SF-268 CNS,16.4 µM
same,TGI,SF-268 CNS,40.7 µM
same,GI50,M14 melanoma,13.6 µM
same,TGI,M14 melanoma,27.3 µM
same,GI50,RXF-631 renal,12.9 µM
same,TGI,RXF-631 renal,27.5 µM
same,GI50,RPMI-8226 leukemia,17.6 µM
same,TGI,RPMI-8226 leukemia,75.5 µM
same,GI50,NCI-H460 lung,6.95 µM
same,TGI,NCI-H460 lung,27.5 µM
same,GI50,M19-MEL melanoma,14.4 µM
same,TGI,M19-MEL melanoma,28.6 µM
same,GI50,ACHN renal,16.9 µM
same,TGI,ACHN renal,36.2 µM
same,GI50,SNB-75 CNS,10.1 µM
same,TGI,SNB-75 CNS,32.4 µM
same,GI50,SK-MEL-28 melanoma,11.9 µM
same,TGI,SK-MEL-28 melanoma,25 µM
same,GI50,IGROV1 ovarian,30 µM
same,TGI,IGROV1 ovarian,62.5 µM
same,GI50,OVCAR-4 ovarian,25.2 µM
same,TGI,OVCAR-4 ovarian,56.7 µM
same,GI50,NCI-H226 lung,20.5 µM
same,TGI,NCI-H226 lung,37.2 µM
same,GI50,NCI-H522 lung,4.46 µM
same,TGI,NCI-H522 lung,17.8 µM
same,GI50,UO-31 renal,16.3 µM
same,TGI,UO-31 renal,29.8 µM
O=C(CC(=O)N1N=C(n2ccc3ccccc32)CC1c1ccccc1)Nc1ccccc1Cl (stereo unspecified),TGI,OVCAR-8 ovarian,> 100 µM
same,TGI,A549 NSCLC,> 100 µM
same,TGI,UACC-257 melanoma,> 100 µM
same,TGI,K-562 leukemia,> 100 µM
same,TGI,KM12 colon,> 100 µM
same,TGI,HOP-62 NSCLC,> 100 µM
same,TGI,HL-60(TB) leukemia,> 100 µM
same,TGI,SNB-78 CNS,> 100 µM
same,TGI,COLO 205 colon,> 100 µM
same,TGI,HCC-2998 colon,> 100 µM
same,TGI,786-0 renal,> 100 µM
same,TGI,MOLT-4 leukemia,> 100 µM
same,TGI,SK-MEL-2 melanoma,> 100 µM
same,TGI,SF-295 CNS,> 100 µM
same,TGI,SF-539 CNS,> 100 µM
same,TGI,SW-620 colon,> 100 µM
same,TGI,UACC-62 melanoma,> 100 µM
same,TGI,TK-10 renal,> 100 µM
same,TGI,HOP-92 NSCLC,> 100 µM
same,TGI,A498 renal,> 100 µM
same,TGI,DMS 273 small cell lung,> 100 µM
same,TGI,SNB-19 CNS,> 100 µM
same,TGI,DMS 114 small cell lung,> 100 µM
same,TGI,SN12C renal,> 100 µM
same,TGI,HCT-15 colon,> 100 µM
same,TGI,U251 CNS,> 100 µM
same,TGI,MALME-3M melanoma,> 100 µM
same,TGI,SK-OV-3 ovarian,> 100 µM
same,TGI,HT29 colon,> 100 µM
same,TGI,LXFL 529 NSCLC,> 100 µM
same,TGI,RXF 393 renal,> 100 µM
same,TGI,OVCAR-3 ovarian,> 100 µM
same,TGI,KM20L2 colon,> 100 µM
same,TGI,HOP-18 NSCLC,> 100 µM
same,TGI,NCI-H23 lung,> 100 µM
same,TGI,HCT-116 colon,> 100 µM
same,TGI,CCRF-CEM leukemia,> 100 µM
same,TGI,LOX IMVI melanoma,> 100 µM
same,TGI,EKVX NSCLC,> 100 µM
same,TGI,SF-268 CNS,> 100 µM
same,TGI,M14 melanoma,> 100 µM
same,TGI,RXF-631 renal,> 100 µM
same,TGI,RPMI-8226 leukemia,> 100 µM
same,TGI,NCI-H460 lung,> 100 µM
same,TGI,M19-MEL melanoma,> 100 µM
same,TGI,ACHN renal,> 100 µM
same,TGI,SNB-75 CNS,> 100 µM
same,TGI,SK-MEL-28 melanoma,> 100 µM
same,TGI,IGROV1 ovarian,> 100 µM
same,TGI,OVCAR-4 ovarian,> 100 µM
same,TGI,NCI-H522 lung,> 100 µM
same,TGI,UO-31 renal,> 100 µM
C=CCc1cc(OC)c(O)c(C(=O)/C=C/c2ccc(OC)c(OC)c2)c1,TGI,A549 NSCLC,> 100 µM
same,TGI,OVCAR-5 ovarian,45.4 µM
same,TGI,UACC-257 melanoma,37.4 µM
same,TGI,K-562 leukemia,41.8 µM
same,TGI,SK-MEL-5 melanoma,36.6 µM
same,TGI,KM12 colon,44.9 µM
same,TGI,HL-60(TB) leukemia,38 µM
same,TGI,SNB-78 CNS,> 100 µM
same,TGI,COLO 205 colon,31.4 µM
same,TGI,HCC-2998 colon,38.6 µM
same,TGI,786-0 renal,35.9 µM
same,TGI,SK-MEL-2 melanoma,28.8 µM
same,TGI,SF-295 CNS,74.1 µM
same,TGI,SF-539 CNS,48.1 µM
same,TGI,SW-620 colon,97.1 µM
same,TGI,UACC-62 melanoma,52.2 µM
same,TGI,CAKI-1 renal,58.7 µM
same,TGI,TK-10 renal,64.1 µM
same,TGI,A498 renal,39.7 µM
same,TGI,DMS 273 small cell lung,> 100 µM
same,TGI,SNB-19 CNS,30.5 µM
same,TGI,DMS 114 small cell lung,52.1 µM
same,TGI,U251 CNS,37.8 µM
same,TGI,MALME-3M melanoma,37 µM
same,TGI,SK-OV-3 ovarian,64.9 µM
same,TGI,HT29 colon,33.1 µM
same,TGI,LXFL 529 NSCLC,54.7 µM
same,TGI,OVCAR-3 ovarian,41.3 µM
same,TGI,NCI-H23 lung,30.5 µM
same,TGI,HCT-116 colon,27.6 µM
same,TGI,CCRF-CEM leukemia,56.4 µM
same,TGI,LOX IMVI melanoma,91.8 µM
same,TGI,EKVX NSCLC,52.5 µM
same,TGI,DLD-1 colon,37.2 µM
same,TGI,SF-268 CNS,53.1 µM
same,TGI,M14 melanoma,31.7 µM
same,TGI,RXF-631 renal,83.9 µM
same,TGI,RPMI-8226 leukemia,3.31 µM
same,TGI,NCI-H460 lung,> 100 µM
same,TGI,XF 498 CNS,27 µM
same,TGI,ACHN renal,45.9 µM
same,TGI,SNB-75 CNS,59.3 µM
same,TGI,SK-MEL-28 melanoma,33.6 µM
same,TGI,IGROV1 ovarian,> 100 µM
same,TGI,OVCAR-4 ovarian,34.9 µM
same,TGI,NCI-H522 lung,7.08 µM
same,TGI,UO-31 renal,29.6 µM
